{"source": "patent US8153410B2", "about": "“Alternate morpheein forms of allosteric proteins as a target for the development of bioactive molecules” (Fox Chase Cancer Center, priority 2003, dated 2012)", "target": "T1, pea PBGS (Pisum sativum, UniProt P30124, C394A)", "T1 construct": "made in house", "T1 sequence (P30124 69-398 C394A)": "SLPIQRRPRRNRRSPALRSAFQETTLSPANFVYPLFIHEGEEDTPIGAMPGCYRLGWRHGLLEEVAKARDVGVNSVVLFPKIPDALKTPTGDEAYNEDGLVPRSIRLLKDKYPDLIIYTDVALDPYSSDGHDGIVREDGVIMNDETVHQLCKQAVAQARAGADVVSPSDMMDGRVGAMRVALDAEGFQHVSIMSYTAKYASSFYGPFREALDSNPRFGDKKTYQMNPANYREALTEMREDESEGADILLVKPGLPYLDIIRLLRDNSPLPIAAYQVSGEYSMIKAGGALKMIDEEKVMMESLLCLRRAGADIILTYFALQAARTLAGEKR", "assay": "native PAGE gel shift of pea PBGS octamer/hexamer equilibrium", "assay_type": "biochemical", "protocol": "FIG. 32(a) The inhibitor morphlock-1 is illustrated as posed by Glide. The subunits A, B, and E are illustrated as ribbon diagram. Morphlock-1 is shown with carbon atoms and illustrated as ball and stick. FIG. 32(b) The chemical structure of morphlock-1. […] Pea PBGS was incubated with various concentrations of morphlock-1 (in a DMSO solution). Each concentration of morphlock-1 with a fixed amount of DMSO was incubated with protein for 30 minutes at 37° C. prior to resolution on 12.5% polyacrylamide native PhastGels. […] (d) The protein concentration dependence of pea PBGS specific activity is illustrated. PBGS (at varied concentrations) was incubated in the presence of DMSO (●) or 50 μM morphlock-1 in DMSO (∘) for 30 minutes at 37° C. prior to assay. The final concentration of morphlock-1 in the inhibited assay was 5 μM, and the concentration of PBGS in the inhibited and control assays ranged from 0.05-50 μg/mL (0.014-1.4 μM).\nFIG. 34(b) Hexameric pea PBGS (1 mg/mL, prepared by dialysis against low ionic strength) was incubated with DMSO (left) or 500 μM morphlock-1 (right) for 30 minutes at 37° C. ALA was added at the indicated concentrations, and the incubation was continued for 30 minutes prior to resolution on 12.5% polyacrylamide native PhastGels. […] Morphlock-1 concentrations are listed at the top of each lane. Protein samples for left-most gel were at 50 μg/ml (1.4 μM subunit) and 1 mM ALA; protein detection is by silver staining. Samples for the middle gel were also at 50 μg/ml (1.4 μM subunit) and 1 mM ALA; the gel was activity stained. Samples for the right-most gel were at 5 μg/ml (0.14 μM subunit) and 10 mM magnesium; protein detection is by Krypton Infrared staining.\nFIG. 41 illustrates native PAGE screening of compounds. Octameric PBGS (1 mg/mL) was incubated with DMSO or 2 mM of each compound for 30 minutes at 37° C. prior to resolution on 12.5% polyacrylamide native PhastGels. […] Each compound is identified by its box address. The compound B6 is morphlock-1.\nThe interconversion of pea PBGS hexamer and octamer is a dynamic equilibrium that responds to protein concentration, substrate concentration, magnesium concentration, inhibitor concentration, and ionic strength.", "note": "Where two headings read alike, the source gives them in different places."}
{"smiles": "O=C1Nc2ccc(S(=O)(=O)NCC(O)c3ccc([N+](=O)[O-])cc3)c3cccc1c23", "note": "(stereo not shown) [morphlock-1, 2-oxo-1,2-dihydro-benzo(cd)indole-6-sulfonic acid[2-hydroxy-2-(4-nitro-phenyl)-ethyl]-amide]", "values": [{"measurement": "IC50", "setting": "5 μg/ml pea PBGS and 10 mM magnesium, Krypton IR detection, read-out: apparent IC50, native PAGE", "value": "1 to 3", "unit": "µM"}, {"measurement": "IC50", "setting": "50 μg/ml (1.4 μM subunit) pea PBGS and 1 mM ALA, silver stain, read-out: apparent IC50, native PAGE", "value": "~100", "unit": "µM"}, {"measurement": "native PAGE screening: shift of oligomeric equilibrium", "setting": "PBGS 1 mg/mL, 2 mM compound, 30 minutes at 37° C.", "value": "dramatically shift the oligomeric equilibrium to the hexamer"}, {"measurement": "hexamer converted to octamer by ALA in the presence of morphlock-1", "setting": "hexameric pea PBGS 1 mg/mL, 2 mM morphlock-1, 5 mM ALA", "value": "~50", "unit": "%"}, {"measurement": "IC50", "setting": "non-equilibrium conditions, 1 mg/ml (~28 μM subunits) pea PBGS, read-out: observed IC50 in native PAGE analyses", "value": "~500", "unit": "µM"}, {"measurement": "effect on pea PBGS morpheein equilibrium, native PAGE", "setting": "pea PBGS 1 mg/mL, various concentrations of morphlock-1, 30 minutes at 37° C.", "value": "draws the pea PBGS morpheein equilibrium entirely to the hexamer in a dose dependent fashion"}, {"measurement": "Coomassie and activity stained native PAGE: binding to hexameric assembly", "setting": "pea PBGS 1 mg/ml, morphlock-1 at 2 mM", "value": "prevents the substrate mediated conversion of hexamer to octamer"}]}
